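Each compound was tested at five concentrations against cells in 96-well plates for 48 hours. GI50 is the concentration that inhibits growth by half. TGI denotes the concentration required for complete inhibition of growth.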
Assays:
Assay in all cases: inhibition of tumour cell growth, NCI panel, 48 h
HCT-116 colon = system: HCT-116 colon
K-562 leukemia = system: K-562 leukemia
NCI/ADR-RES ovarian = system: NCI/ADR-RES ovarian
SK-MEL-28 melanoma = system: SK-MEL-28 melanoma
U251 CNS = system: U251 CNS
LOX IMVI melanoma = system: LOX IMVI melanoma
SK-MEL-2 melanoma = system: SK-MEL-2 melanoma
PC-3 prostate = system: PC-3 prostate
CCRF-CEM leukemia = system: CCRF-CEM leukemia
HOP-92 NSCLC = system: HOP-92 NSCLC

Structure (SMILES)	TGI (HCT-116 colon) [µM]	TGI (K-562 leukemia) [µM]	TGI (NCI/ADR-RES ovarian) [µM]	TGI (SK-MEL-28 melanoma) [µM]	TGI (U251 CNS) [µM]	TGI (LOX IMVI melanoma) [µM]	TGI (SK-MEL-2 melanoma) [µM]	TGI (PC-3 prostate) [µM]	TGI (CCRF-CEM leukemia) [µM]	TGI (HOP-92 NSCLC) [µM]	GI50 (HCT-116 colon) [µM]	GI50 (K-562 leukemia) [µM]	GI50 (HOP-92 NSCLC) [µM]	GI50 (NCI/ADR-RES ovarian) [µM]	GI50 (SK-MEL-28 melanoma) [µM]	GI50 (U251 CNS) [µM]	GI50 (LOX IMVI melanoma) [µM]	GI50 (SK-MEL-2 melanoma) [µM]	GI50 (PC-3 prostate) [µM]	GI50 (CCRF-CEM leukemia) [µM]
CCOP(=O)(/C=C/n1cc(C)c(=O)[nH]c1=O)OCC	> 100	> 100	> 100	> 100	> 100	> 100	> 100	> 100	> 100											
Nc1[nH]c(=O)nc2c1ncn2C1OC(CO)C(O)C1O (stereo not drawn)	> 100	> 100	51.1	> 100	> 100	> 100	> 100	60.2	75.3	> 100										
COC1(CC[C@@H](C)COC2OC(CO)C(O)C(O)C2O)OC2C[C@H]3[C@@H]4CC[C@H]5C[C@@H](OC6OC(CO)C(OC7OC(CO)C(O)C(O)C7O)C(O)C6OC6OC(C)C(O)C(O)C6O)[C@H](O)C[C@]5(C)[C@H]4CC[C@]3(C)C2[C@@H]1C (stereo partly drawn)	3.67	7.81	> 20.6	3.37	3.49	3.22	3.9	3.45	3.9	12.8										
CCC1(c2ccc(N3C(=O)c4cccc5cc([N+](=O)[O-])cc(c45)C3=O)cc2)CCC(=O)NC1=O (stereo not drawn)	21.6	> 100	79.8	86.8	23.8	> 70.6	> 100	> 100	35	8.8										
O=c1[nH]c(=O)n(COC(CO)CO)cc1-c1ccccc1	> 100	> 100	> 100	> 100	> 100	> 100	> 100	> 100	> 100	> 100										
O=S(=O)(Nc1nc2ccccc2nc1N1CCCCCC1)c1ccccc1	> 100	> 100	> 100	> 100	48.8	> 100	33.4	77.4	> 100	37.4										
O=C(O)CSC(CC(=O)c1ccc(Cl)cc1)c1ccc(Cl)cc1 (stereo not drawn)	59.7	> 100	> 100		> 100	40.1	> 100	> 100	36.3	73.2										
COc1ccc(N2C(=O)C3c4[nH]c5c(C)cccc5c4C4CCC(C(C)C)CC4C3C2=O)cc1 (stereo not drawn)		5.86	51.1	31.5	29.9	19.3	35.3	25.2		34.4										
C/C(=N\Nc1nc2ccccc2s1)c1ccncn1	16.3		1.67	> 100	> 100		31.8	> 43	> 100	> 30.1										
N[C@@H](CCC(=O)NC(Cc1ccccc1)C(=O)NCP(=O)(O)O)C(=O)O (stereo partly drawn)	> 100	> 100	> 100	> 100	> 100	> 100	> 100	> 100												
CN(CCCCCl)P(=O)(OCc1ccc([N+](=O)[O-])o1)OCC1OC(n2ccc(N)nc2=O)C(O)C1O (stereo not drawn)	25.9	> 100	> 100	> 100	11.1	20.5	53.1	43												
C[s+]1c2ccccc2c2ccccc21	> 100	> 100		> 100	> 100	> 100	> 100		> 100											
NC(=O)CCC(N=c1c2ccccc2n(O)c2ccccc12)C(=O)O (stereo not drawn)	> 100	> 100		89.4	> 100	> 100	> 100		> 100											
O=C1NC(O)c2cc3ccccc3cc2O1 (stereo not drawn)	51.1	> 100	> 100	> 100	87.3	95.3		> 100	> 100	90.7										
CCOC(=O)NC(=S)N(CC(=O)c1cc(OC)c(OC)c(OC)c1)c1ccc(Cl)cc1	> 100	> 100	> 100	> 100	> 100	> 100	> 100	> 100	> 100	> 100	72.3	51.8	38.9	56.5	75.8	99.7	23.7	47.4	72.2	71.4
C[C@]12CC[C@H]3[C@@H](CC=C4C[C@@H](N5CCCC5)CC[C@@]43C)[C@@H]1C[C@H](N1CCCCC1)[C@@H]2O	> 100	49.6	> 100	> 100	> 100	> 100		> 100	> 100	> 100										
O=C1c2ccccc2-c2nc3ccncc3n21	> 100	> 100	> 100	> 100	> 100		> 100	> 100	> 100	> 100										
COc1cc2c[n+]3c4c(c2c(OC)c1OC)CCCC4CC3 (stereo not drawn)	> 100	> 100	> 100	> 100	> 100		> 100	> 100	> 100	> 100										
C=C(C)C1CC(=O)C(C)=C(O)C1 (stereo not drawn)	> 100	> 100	> 100	> 100	> 100	> 100	> 100	> 100	> 100											
Oc1ccc(C(O)C2CCCCN2)cc1O (stereo not drawn)	> 100	> 100	> 100	> 100	> 100	65.5	> 100	> 100		> 100										
CC(=O)n1[nH]c(=O)n(-c2ccc(Cl)cc2)c1=O	> 100	> 100	> 100	> 100	> 100	> 100	> 100	> 100	> 100											
COc1ccc(-c2ccc(C(=O)C=P(c3ccccc3)(c3ccccc3)c3ccccc3)cc2)cc1	32.3	20.6	37.5	32	31.9	31.5		49	> 100	34										

Structure (SMILES)	TGI (HCT-116 colon) [µM]	TGI (K-562 leukemia) [µM]	TGI (NCI/ADR-RES ovarian) [µM]	TGI (SK-MEL-28 melanoma) [µM]	TGI (U251 CNS) [µM]	TGI (LOX IMVI melanoma) [µM]	TGI (SK-MEL-2 melanoma) [µM]	TGI (PC-3 prostate) [µM]	TGI (CCRF-CEM leukemia) [µM]	TGI (HOP-92 NSCLC) [µM]	GI50 (HCT-116 colon) [µM]	GI50 (K-562 leukemia) [µM]	GI50 (HOP-92 NSCLC) [µM]	GI50 (NCI/ADR-RES ovarian) [µM]	GI50 (SK-MEL-28 melanoma) [µM]	GI50 (U251 CNS) [µM]	GI50 (LOX IMVI melanoma) [µM]	GI50 (SK-MEL-2 melanoma) [µM]	GI50 (PC-3 prostate) [µM]	GI50 (CCRF-CEM leukemia) [µM]
COc1cc2c(/C=C3/C(=O)Nc4ccccc43)c(Cl)n(Cc3ccc(Cl)cc3)c2cc1C	0.824		0.612	22.9	1.23	2.54	17.3	16.5		39.5										
O=C1/C(=C/c2ccccc2)Oc2cc(O)ccc21	> 100	> 100	> 100	> 100	> 100			> 100	> 100											
CCC1(O)CC(CCN(Cc2ccccc2)C(=O)OCc2ccccc2)C(OCc2ccccc2)C1O (stereo not drawn)	48.8	19.5	25.7	36.4	> 100	86.7	28.7	23.2	81.7											
CCOC(=O)c1cc(-c2ccc(OC)cc2)c([N+](=O)[O-])[nH]1	> 10	> 10		> 10	> 10		> 10	> 10	> 10	> 10										
COC(=O)C1=C(CCCCO[Si](C)(C)C(C)(C)C)NC(=O)N2[C@H](CCOCc3ccccc3)CC[C@@H]12	> 100	> 100	> 100	> 100	> 100		> 100	> 100		> 100										
O=c1c2cc(Br)cc(Br)c2[nH]c(=S)n1-c1ccc(N=Nc2ccc(O)c3cccnc23)cc1	> 100	> 100		> 100	62.3	> 100	> 100	> 100		41.6										
COC(=O)[C@]1(c2cc3ccccc3n2S(=O)(=O)c2ccccc2)CC2CN(C(=O)OCc3ccccc3)C1C1OC(C)(C)OC21 (stereo partly drawn)	> 100		> 100	> 100	> 100	> 100	> 100	> 100	> 100	> 100										
CC1=NN(C(=O)CC(=O)Nc2cccc(C)c2)C(=O)C1N=Nc1ccc(S(=O)(=O)CCOS(=O)(=O)O)cc1 (stereo not drawn)	12.6	> 100		19.7	13.6	5.47	2.67	11.2	> 100	17.9										
Nc1c(C(=O)c2ccc(Cl)c(Cl)c2)[nH]c(NCc2ccccc2)c1C(=S)Nc1ccccc1	12.6	> 100	4.72	18.9	15.7	4.53	25.9	30.5												
C=C1CCC[C@@H](C)C(O)[C@@H]2OC(=O)C(=C)[C@@H]2C[C@@H](OC(C)=O)[C@@]2(C)CC[C@@H]1O2 (stereo partly drawn)	13.8	12.1	19.3	15.1	17.8		15.8	16.2	6.8	15										
COC1CC(C)(NC(=O)C(F)(F)F)C2OC(c3ccccc3)OCC2O1 (stereo not drawn)	> 100	> 100	> 100	> 100	> 100	> 100		> 100	> 100	> 100										
Cc1c(C)c2c(c(N)c1C#N)C(=O)N(N)C2=O	> 100	> 100	> 100	> 100	> 100		> 100	> 100	> 100	> 100										
N#Cc1nc(CCc2nc(C#N)c(N)o2)oc1N	> 10	> 10	> 10	> 10		> 10		> 10	> 10	> 10										
N#Cc1c(NC(=S)Nc2ccc(Cl)cc2)sc2c1CCN(N1CCc3c(sc(NC(=S)Nc4ccc(Cl)cc4)c3C#N)C1)C2	> 100	> 100	> 100	> 100	86.2	23.4	50.2	> 100	> 100											
CC1=C(C)C(=O)C(C2=CC(=O)c3ccccc3C2=O)=C(C2=CC(=O)c3ccccc3C2=O)C1=O	> 100		> 100	23.5	> 45.3	> 21.2	24.4	21.7		> 83.3										
CC(Nc1ccc(Cl)cc1)c1ccncc1 (stereo not drawn)	> 100	> 100	> 100	> 100	> 100	> 100	> 100	> 100	> 100											
CC1OC(OC2C(O[C@H]3CC[C@@]4(C)C(=CC[C@H]5[C@@H]6C[C@@H]7O[C@]8(CC[C@@H](C)CO8)[C@@H](C)[C@@H]7[C@@]6(C)CC[C@@H]54)C3)OC(CO)C(O)C2OC2OC(CO)C(O)C(O)C2O)C(O)C(O)C1O (stereo partly drawn)		> 100	4.93	3.68		5.9	3.45	3.55	> 100	3.68										
CCOC(=O)c1c(N)sc2c1C(C(=O)OCC)CCCC2 (stereo not drawn)	> 100	> 100		> 100	> 100		> 100	> 100		> 100										
Cc1nc(NC(C)(CO)CO)nc(N/N=C/c2ccc(Cl)cc2)c1C(=O)Nc1ccc(Cl)cc1	> 100	> 100	> 100	> 100	> 100	> 100	> 100	> 100	> 100											
O=C(Nc1ccccc1)N1CCN(C(=O)Nc2ccccc2)C1=S	> 100	> 100	> 100	> 100	> 100	> 100	> 100		> 100	63.5										
O=C1c2cc3c(cc2-c2c1c1cc(F)c(F)cc1c(=O)n2CCCn1ccnc1)OCO3	10.8	> 100		> 100	10.2		0.93	> 100	> 100		< 0.01	0.0441			0.228	< 0.01		0.256	0.124	< 0.01

Reference: PubChem BioAssay (NCI)
